Data: patent US5190870A, “Method for oxidizing hydrocarbons with a hydroxylase from a methane monooxygenase” (Amoco Corporation, priority 1990, dated 1993)

T1: Methylosinus trichosporium OB3b soluble methane monooxygenase, complete system (hydroxylase, component B, reductase) (Methylosinus trichosporium, UniProt P27353)
T1 sequence (P27353 1-526): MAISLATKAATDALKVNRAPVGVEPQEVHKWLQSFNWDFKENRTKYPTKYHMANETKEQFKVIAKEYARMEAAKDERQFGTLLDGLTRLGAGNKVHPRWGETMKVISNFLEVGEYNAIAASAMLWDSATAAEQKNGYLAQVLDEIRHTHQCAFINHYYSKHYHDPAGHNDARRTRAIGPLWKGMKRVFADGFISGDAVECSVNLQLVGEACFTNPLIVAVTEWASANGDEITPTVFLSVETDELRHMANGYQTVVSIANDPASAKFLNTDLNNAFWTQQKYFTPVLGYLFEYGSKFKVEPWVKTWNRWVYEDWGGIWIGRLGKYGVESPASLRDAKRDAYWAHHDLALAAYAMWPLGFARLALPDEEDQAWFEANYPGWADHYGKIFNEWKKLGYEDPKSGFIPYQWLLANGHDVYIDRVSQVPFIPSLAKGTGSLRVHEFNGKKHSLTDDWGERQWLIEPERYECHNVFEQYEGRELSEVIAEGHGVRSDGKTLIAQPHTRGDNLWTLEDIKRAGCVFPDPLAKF
T1 sequence (P27354 1-394 partner): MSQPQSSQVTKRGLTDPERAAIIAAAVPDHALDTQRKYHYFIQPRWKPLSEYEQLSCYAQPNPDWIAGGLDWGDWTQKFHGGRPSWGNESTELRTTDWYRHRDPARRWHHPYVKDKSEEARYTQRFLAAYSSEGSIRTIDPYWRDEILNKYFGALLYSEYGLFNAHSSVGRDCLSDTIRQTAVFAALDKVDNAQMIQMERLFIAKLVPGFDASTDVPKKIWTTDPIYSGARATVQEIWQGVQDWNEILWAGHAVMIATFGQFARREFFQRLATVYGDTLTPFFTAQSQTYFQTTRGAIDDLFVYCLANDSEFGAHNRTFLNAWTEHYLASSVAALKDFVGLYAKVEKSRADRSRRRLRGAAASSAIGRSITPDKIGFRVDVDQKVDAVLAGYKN
T1 sequence (P27355 1-169 partner): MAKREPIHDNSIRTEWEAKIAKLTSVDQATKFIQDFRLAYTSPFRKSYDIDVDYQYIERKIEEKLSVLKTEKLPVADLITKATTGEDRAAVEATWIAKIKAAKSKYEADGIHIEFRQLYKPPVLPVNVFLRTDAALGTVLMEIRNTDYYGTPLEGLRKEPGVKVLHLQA

B1: Methylosinus trichosporium OB3b soluble methane monooxygenase, complete system (hydroxylase, component B, reductase) (Methylosinus trichosporium) (protein)
chain: T1 sequence (P27353 1-526)

Key:
[1] = target: T1, Methylosinus trichosporium OB3b soluble methane monooxygenase, complete system (hydroxylase, component B, reductase); experiment: Polarographic / gas chromatographic assay of the complete (reconstituted) methane monooxygenase; details: catalytic cycles per second per molecule
Procedure: (§1) Unless explicitly stated, the specific activity values reported for the enzyme components are those observed during the hydroxylation reaction in the presence of optimal concentrations of the other components of the methane monooxygenase. The optimal concentrations were determined by varying the concentration of one component relative to fixed concentrations of the other two components. In routine polarographic assays of methane monooxygenase activity, furan is an acceptable substrate with characteristics which facilitate the assay.

[2] = substrate: c1ccoc1; experiment: purified protein, by the assay type; details: other: complete methane monooxygenase, polarographic assay; pH 7.0; 30.0 °C
Procedure: as §1

Row | Molecule | turnover number relative to the hydroxylase [1] | Km [2]
1 | c1ccoc1 [furan] | 7.6 S^-1 | 
2 | B1 |  | 20 µM
